Like-named read-outs stand apart in the source and are kept apart here.
Columns and labels:
[1] = target: T1, CHO cells over-expressing the EP3 receptor (Homo sapiens, UniProt P43115); experiment: CHO cell cAMP assay; EP3 cAMP antagonist dose response (sulprostone reference), HTRF; type: cell-based; settings: sulprostone 700 nM (EC80) and FSK 2 μM (EC70); read-out: CHO_cAMP IC50
T1 construct: expressed in transfected cells; host or cells: CHO cells
T1 sequence (P43115 1-390): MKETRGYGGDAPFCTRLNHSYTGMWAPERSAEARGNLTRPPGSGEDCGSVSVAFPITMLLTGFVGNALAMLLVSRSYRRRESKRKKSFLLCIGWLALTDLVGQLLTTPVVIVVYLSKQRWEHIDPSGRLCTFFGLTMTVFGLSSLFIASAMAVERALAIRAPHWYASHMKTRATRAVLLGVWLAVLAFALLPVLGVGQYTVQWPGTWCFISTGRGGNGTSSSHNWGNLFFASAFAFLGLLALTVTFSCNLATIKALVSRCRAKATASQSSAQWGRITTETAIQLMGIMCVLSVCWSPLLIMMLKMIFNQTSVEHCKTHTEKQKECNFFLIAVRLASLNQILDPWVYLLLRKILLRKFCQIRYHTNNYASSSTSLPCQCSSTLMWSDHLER
Method in brief: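 EP3-overexpressing CHO cells pre-incubated with test compound, then stimulated 30 min at 37 °C with FSK (2 μM, EC70) plus sulprostone (700 nM, EC80); antagonism seen as restored cAMP. cAMP measured by HTRF 665/615 ratio, converted via on-plate standard curve. IC50 from Hill fit of 11-point dosing.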

[2] = target: T2, EP3 membrane (EP3 receptor) (Homo sapiens, UniProt P43115); experiment: [3H]-PGE2 binding; EP3 competition binding (SPA)
T2 construct: purchased Millipore HTS092M
T2 sequence (P43115 1-390): T1 sequence (P43115 1-390)
Method in brief: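 Ki derived from one-site nonlinear regression of scintillation proximity counts after 2 h room-temperature equilibration. Serially diluted (1:3) compounds competed against [3H]-PGE2 (2 nM) for EP3 receptor membranes (2 μg/well) in pH 7.4 Tris buffer with 10 mM MgCl2, 1 mM EDTA, 0.1% DMSO.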

| IC50 [1] | Ki [2] | Ki ([2]; unit nM) | Structure (SMILES) |
| --- | --- | --- | --- |
| 0.045 µM | 6 nM |  | O=C(NC/C=C1\CCCc2cnn(C3CCN(c4ccc(F)cc4)CC3)c21)NS(=O)(=O)c1ccc(Cl)cc1 [Compound #122, (E)-4-chloro-N-((2-(1-(1-(4-fluorophenyl)piperidin-4-yl)-1,4,5,6-tetrahydro-7H-indazol-7-ylidene)ethyl)carbamoyl)benzenesulfonamide] |
| 0.006 µM | 1 nM |  | O=C(NC/C=C1\CCCc2cnn(C3CCN(c4ccc(F)cc4)CC3)c21)NS(=O)(=O)c1cc(Cl)c(Cl)s1 [Compound #123, (E)-4,5-dichloro-N-((2-(1-(1-(4-fluorophenyl)piperidin-4-yl)-1,4,5,6-tetrahydro-7H-indazol-7-ylidene)ethyl)carbamoyl)thiophene-2-sulfonamide] |
| 0.798 µM | 100 nM |  | O=C(NC/C(F)=C1\CCCc2cnn(-c3ccc(C(F)(F)F)cc3)c21)NS(=O)(=O)c1ccc(Cl)s1 [Compound #124, (Z)-5-chloro-N-((2-fluoro-2-(1-(4-(trifluoromethyl)phenyl)-1,4,5,6-tetrahydro-7H-indazol-7-ylidene)ethyl)carbamoyl)thiophene-2-sulfonamide] |
| 0.02 µM | 3 nM |  | O=C(NC/C(F)=C1\CCCc2cnn(-c3ccc(C(F)(F)F)cc3)c21)NS(=O)(=O)c1cc(Cl)c(Cl)s1 [Compound #125, (Z)-4,5-dichloro-N-((2-fluoro-2-(1-(4-(trifluoromethyl)phenyl)-1,4,5,6-tetrahydro-7H-indazol-7-ylidene)ethyl)carbamoyl)thiophene-2-sulfonamide] |
| 0.03 µM | 1 nM |  | CS(=O)(=O)c1ccc(-n2ncc3c2/C(=C/CNC(=O)NS(=O)(=O)c2cc(Cl)c(Cl)s2)CCC3)cc1 [Compound #126, (E)-4,5-dichloro-N-((2-(1-(4-(methylsulfonyl)phenyl)-1,4,5,6-tetrahydro-7H-indazol-7-ylidene)ethyl)carbamoyl)thiophene-2-sulfonamide] |
| 0.008 µM | 1 nM |  | O=C(NC/C(F)=C1\CCCc2onc(Cc3ccc(Cl)cc3Cl)c21)NS(=O)(=O)c1cc(Cl)c(Cl)s1 [Compound #127, (Z)-4,5-dichloro-N-((2-(3-(2,4-dichlorobenzyl)-6,7-dihydrobenzo[d]isoxazol-4(5H)-ylidene)-2-fluoroethyl)carbamoyl)thiophene-2-sulfonamide] |
| 8.4 µM | 532 nM |  | O=C(NC/C(F)=C1/CCCc2onc(Cc3ccc(Cl)cc3Cl)c21)NS(=O)(=O)c1cc(Cl)c(Cl)s1 [Compound #128, (E)-4,5-dichloro-N-((2-(3-(2,4-dichlorobenzyl)-6,7-dihydrobenzo[d]isoxazol-4(5H)-ylidene)-2-fluoroethyl)carbamoyl)thiophene-2-sulfonamide] |
| 0.548 µM | 29 nM |  | O=C(NC/C(F)=C1\CCCn2nnc(Cc3ccccc3)c21)NS(=O)(=O)c1cc(Cl)c(Cl)s1 [Compound #129, (Z)—N-((2-(3-benzyl-6,7-dihydro-[1,2,3]triazolo[1,5-a]pyridin-4(5H)-ylidene)-2-fluoroethyl)carbamoyl)-4,5-dichlorothiophene-2-sulfonamide] |
| 0.182 µM | 40 nM |  | O=C(NC/C(F)=C1\CCc2cnn(-c3ccc(C(F)(F)F)cc3)c21)NS(=O)(=O)c1cc(Cl)c(Cl)s1 [Compound #130, (Z)-4,5-dichloro-N-((2-fluoro-2-(1-(4-(trifluoromethyl)phenyl)-4,5-dihydrocyclopenta[c]pyrazol-6(1H)-ylidene)ethyl)carbamoyl)thiophene-2-sulfonamide] |
| 0.349 µM | 94 nM |  | COc1ccc(Cl)cc1S(=O)(=O)NC(=O)NC/C(F)=C1\CCCc2cnn(Cc3ccc(C(F)(F)F)cc3)c21 [Compound #131, (Z)-5-chloro-N-((2-fluoro-2-(1-(4-(trifluoromethyl)benzyl)-1,4,5,6-tetrahydro-7H-indazol-7-ylidene)ethyl)carbamoyl)-2-methoxybenzenesulfonamide] |
| 3.9 µM | 350 nM |  | O=C(NC/C(F)=C1\CCCc2cnn(Cc3ccc(C(F)(F)F)cc3)c21)NS(=O)(=O)c1cc2ccccc2o1 [Compound #132, (Z)—N-((2-fluoro-2-(1-(4-(trifluoromethyl)benzyl)-1,4,5,6-tetrahydro-7H-indazol-7-ylidene)ethyl)carbamoyl)benzofuran-2-sulfonamide] |
| 1.27 µM | 289 nM |  | O=C(NC/C(F)=C1\CCCc2cnn(Cc3ccc(C(F)(F)F)cc3)c21)NS(=O)(=O)c1cc2ccccc2s1 [Compound #133, (Z)—N-((2-fluoro-2-(1-(4-(trifluoromethyl)benzyl)-1,4,5,6-tetrahydro-7H-indazol-7-ylidene)ethyl)carbamoyl)benzo[b]thiophene-2-sulfonamide] |
| 0.052 µM | 7 nM |  | O=C(NC/C(F)=C1\CCCc2cnn(Cc3ccc(C(F)(F)F)cc3)c21)NS(=O)(=O)c1cc(Cl)c(Cl)s1 [Compound #134, (Z)-4,5-dichloro-N-((2-fluoro-2-(1-(4-(trifluoromethyl)benzyl)-1,4,5,6-tetrahydro-7H-indazol-7-ylidene)ethyl)carbamoyl)thiophene-2-sulfonamide] |
| 4.6 µM | 472 nM |  | O=C(NC/C(F)=C1/CCCn2nnc(Cc3ccccc3)c21)NS(=O)(=O)c1cc(Cl)c(Cl)s1 [Compound #135, (E)-N-((2-(3-benzyl-6,7-dihydro-[1,2,3]triazolo[1,5-a]pyridin-4(5H)-ylidene)-2-fluoroethyl)carbamoyl)-4,5-dichlorothiophene-2-sulfonamide] |
| 0.046 µM | 5 nM |  | O=C(NC/C(F)=C1\CCc2cnn(Cc3ccc(Cl)cc3Cl)c21)NS(=O)(=O)c1cc(Cl)c(Cl)s1 [Compound #136, (Z)-4,5-dichloro-N-((2-(1-(2,4-dichlorobenzyl)-4,5-dihydro-cyclopenta[c]pyrazol-6(1H)-ylidene)-2-fluoroethyl)carbamoyl)thiophene-2-sulfonamide] |
| 0.488 µM | 220 nM |  | O=C(NC/C(F)=C1/CCc2cnn(-c3ccc(C(F)(F)F)cc3)c21)NS(=O)(=O)c1cc(Cl)c(Cl)s1 [Compound #137, (E)-4,5-dichloro-N-((2-fluoro-2-(1-(4-(trifluoromethyl)phenyl)-4,5-dihydrocyclopenta[c]pyrazol-6(1H)-ylidene)ethyl)carbamoyl)thiophene-2-sulfonamide] |
| 0.006 µM |  | 0.4 nM | O=C(NC/C=C1\CCCc2cnn(Cc3cnc(-c4ccccc4)nc3)c21)NS(=O)(=O)c1cc(Cl)c(Cl)s1 [Compound #138, (E)-4,5-dichloro-N-((2-(1-((2-phenylpyrimidin-5-yl)methyl)-1,4,5,6-tetrahydro-7H-indazol-7-ylidene)ethyl)carbamoyl)thiophene-2-sulfonamide] |
| 0.009 µM | 7 nM |  | Cc1ncc(S(=O)(=O)NC(=O)NC/C=C2\CCCc3cnn(Cc4ccc(Cl)cc4Cl)c32)s1 [Compound #139, (E)-N-((2-(1-(2,4-dichlorobenzyl)-1,4,5,6-tetrahydro-7H-indazol-7-ylidene)ethyl)carbamoyl)-2-methylthiazole-5-sulfonamide] |
| 0.012 µM | 8 nM |  | O=C(NC/C=C1\CCCc2cnn(C3CCN(c4ccccn4)CC3)c21)NS(=O)(=O)c1cc(Cl)c(Cl)s1 [Compound #140, (E)-4,5-dichloro-N-((2-(1-(1-(pyridin-2-yl)piperidin-4-yl)-1,4,5,6-tetrahydro-7H-indazol-7-ylidene)ethyl)carbamoyl)thiophene-2-sulfonamide] |
| 0.75 µM | 215 nM |  | COc1ccc(Cn2ncc3c2/C(=C(\F)CNC(=O)NS(=O)(=O)c2cc(Cl)c(Cl)s2)CCC3)cn1 [Compound #141, (Z)-4,5-dichloro-N-((2-fluoro-2-(1-((6-methoxypyridin-3-yl)methyl)-1,4,5,6-tetrahydro-7H-indazol-7-ylidene)ethyl)carbamoyl)thiophene-2-sulfonamide] |
| 0.018 µM | 3 nM |  | COc1ccc(S(=O)(=O)NC(=O)NC/C(F)=C2\CCCc3cnn(Cc4ccc(Cl)cc4Cl)c32)cc1Cl [Compound #143, (Z)-3-chloro-N-((2-(1-(2,4-dichlorobenzyl)-1,4,5,6-tetrahydro-7H-indazol-7-ylidene)-2-fluoroethyl)carbamoyl)-4-methoxybenzenesulfonamide] |
| 0.005 µM |  | 0.4 nM | O=C(NC/C(F)=C1\COCc2[nH]nc(Cc3ccc(Cl)cc3Cl)c21)NS(=O)(=O)c1cc(Cl)c(Cl)s1 [Compound #147, (E)-4,5-dichloro-N-((2-(3-(2,4-dichlorobenzyl)-1,7-dihydropyrano[3,4-c]pyrazol-4(5H)-ylidene)-2-fluoroethyl)carbamoyl)thiophene-2-sulfonamide] |
| 0.006 µM | 2 nM |  | Cc1cc(S(=O)(=O)NC(=O)NC/C(F)=C2\CCCc3cnn(Cc4ccc(Cl)cc4Cl)c32)sc1Cl [Compound #149, (Z)-5-chloro-N-((2-(1-(2,4-dichlorobenzyl)-1,4,5,6-tetrahydro-7H-indazol-7-ylidene)-2-fluoroethyl)carbamoyl)-4-methylthiophene-2-sulfonamide] |
